Key:
[1] = test system: goosegrass; experiment: Test C pre-/postemergence herbicide test; assay type: in vivo, Eleusine indica
Procedure, shortened: (§1)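 Greenhouse-grown plants were evaluated visually 12 to 14 days after treatment, with 100 meaning complete control and 0 no effect. Application was preemergence, or postemergence at 2 to 18 cm.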

[2] = test system: large crabgrass; experiment: Test A pre-/postemergence herbicide test; assay type: in vivo, Digitaria sanguinalis
Procedure, shortened: (§2)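 Plants are held in greenhouse about ten days after treatment, then compared with untreated controls and scored 0 (no effect) to 100 (complete control). Preemergence dosing is a directed soil spray on sown sandy loam; postemergence dosing is spray to runoff at 2–10 cm height.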

[3] = test system: large crabgrass; experiment: Test C pre-/postemergence herbicide test; assay type: in vivo, Digitaria sanguinalis
Procedure, shortened: as §1

[4] = test system: pigweed; experiment: Test C pre-/postemergence herbicide test; assay type: in vivo, Amaranthus retroflexus
Procedure, shortened: as §1

[5] = test system: common (oilseed) sunflower; experiment: Test C pre-/postemergence herbicide test; assay type: in vivo, Helianthus annuus; conditions: for Plant response rating, Sunflower: preemergence
Procedure, shortened: as §1

[6] = test system: redroot pigweed; experiment: Test A pre-/postemergence herbicide test; assay type: in vivo, Amaranthus retroflexus
Procedure, shortened: as §2

[7] = test system: rice; experiment: Test B pre-/postemergence herbicide test; assay type: in vivo, Oryza sativa; conditions: preemergence; for Plant response rating, Rice: 500 g ai/ha
Procedure, shortened: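 Pre: seeds sown, then sprayed. Post: 1–4-leaf plants (2–18 cm) sprayed at the same time. Paddy: flooded, treated at 2-leaf stage. Formulation: non-phytotoxic solvent with surfactant. Greenhouse 13–15 days; visual 0–100 score relative to controls.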

[8] = test system: velvetleaf; experiment: Test C pre-/postemergence herbicide test; assay type: in vivo, Abutilon theophrasti
Procedure, shortened: as §1

[9] = 62 g ai/ha, preemergence, scale 0 to 100
[10] = 125 g ai/ha, scale 0 (no effect) to 100 (complete control), visual, 12 to 14 days, preemergence
[11] = 250 g ai/ha, scale 0-100, preemergence
[12] = Preemergence, 500 g ai/ha, scale 0 to 100, 0 no effect, 100 complete control
[13] = Postemergence, 500 g ai/ha, 0 to 100 scale, 0 no effect, 100 complete control
[14] = Postemergence, 2000 g ai/ha, 0 to 100 scale, 0 no effect, 100 complete control
[15] = Preemergence, 2000 g ai/ha, visual rating, 0 to 100 scale (0 no effect, 100 complete control)
[16] = preemergence, 500 g ai/ha, visual injury, 0 to 100 scale (0 no effect, 100 complete control)
[17] = 125 g ai/ha, 0 = no effect, 100 = complete control
[18] = 500 g ai/ha, scale 0 to 100 (0 no effect, 100 complete control), visual, 12 to 14 days, preemergence
[19] = 500 g ai/ha, scale 0 to 100 (0 no effect, 100 complete control), visual, 12 to 14 days
[20] = visual rating, 0 = no effect, 100 = complete control
[21] = Postemergence, 500 g ai/ha, scale 0 to 100
[22] = Postemergence, 250 g ai/ha, scale 0 to 100, 0 no effect, 100 complete control
[23] = postemergence, 125 g ai/ha, scale 0 to 100
[24] = postemergence, 62 g ai/ha, scale 0 to 100

SMILES: CCc1nc(C(C)(C)C)sc1C(=O)Nc1cccc(C(=O)N(CC)CC)c1 [Compound 205]
- Plant response rating, Goosegrass [1, 9]: 50
- Plant response rating, Goosegrass [1, 10]: 70
- Plant response rating, Goosegrass [1, 11]: 80
- Goosegrass plant response rating [1, 12]: 95
- Crabgrass, Large plant response rating [2, 13]: 10
- Plant response rating, Crabgrass, Large [2, 14]: 20
- Crabgrass, Large plant response rating [2, 15]: 95
- Crabgrass, Large plant response rating [2, 16]: 80
- Plant response rating, Crabgrass, Large [3, 9]: 60
- Plant response rating, Crabgrass, Large [3, 10]: 80
- Plant response rating, Crabgrass, Large [3, 11]: 100
- Crabgrass, Large plant response rating [3, 12]: 100
- Plant response rating, Pigweed [4, 9]: 90
- Plant response rating, Pigweed [4, 10]: 95
- Plant response rating, Pigweed [4, 11]: 95
- Pigweed plant response rating [4, 12]: 100
- Plant response rating, Sunflower ([5]; 62 g ai/ha, scale 0 to 100): 0
- Plant response rating, Sunflower ([5]; 125 g ai/ha, scale 0 (no effect) to 100 (complete control), visual, 12 to 14 days): 0
- Plant response rating, Sunflower ([5]; 250 g ai/ha, scale 0-100): 0
- Sunflower plant response rating [5, 12]: 0
- Pigweed plant response rating [6, 13]: 50
- Plant response rating, Pigweed [6, 14]: 65
- Pigweed plant response rating [6, 15]: 100
- Pigweed plant response rating [6, 16]: 100
- Rice plant response rating (0 to 100 scale) [7, 17]: 10
- Plant response rating, Rice ([7]; visual rating 0-100, 0 no effect, 100 complete control): 70
- Plant response rating, Velvetleaf [8, 9]: 10
- Plant response rating, Velvetleaf [8, 10]: 40
- Plant response rating, Velvetleaf [8, 11]: 60
- Velvetleaf plant response rating [8, 12]: 100

SMILES: CCNC(=O)c1ccc(F)c(NC(=O)C2CC(C(C)(C)C)=NN2CC)c1 (racemic) [Compound 269]
- Plant response rating, Goosegrass [1, 9]: 70
- Plant response rating, Goosegrass [1, 10]: 85
- Plant response rating, Goosegrass [1, 11]: 95
- Plant response rating, Goosegrass [1, 18]: 100
- Crabgrass, Large plant response rating [2, 13]: 35
- Plant response rating, Crabgrass, Large [2, 14]: 80
- Crabgrass, Large plant response rating [2, 15]: 100
- Crabgrass, Large plant response rating [2, 16]: 65
- Plant response rating, Crabgrass, Large [3, 9]: 95
- Plant response rating, Crabgrass, Large [3, 10]: 100
- Plant response rating, Crabgrass, Large [3, 11]: 100
- Plant response rating, Crabgrass, Large [3, 18]: 100
- Plant response rating, Pigweed [4, 9]: 100
- Plant response rating, Pigweed [4, 10]: 100
- Plant response rating, Pigweed [4, 11]: 100
- Plant response rating, Pigweed [4, 18]: 100
- Plant response rating, Sunflower ([5]; 62 g ai/ha, scale 0 to 100): 0
- Plant response rating, Sunflower ([5]; 250 g ai/ha, scale 0-100): 5
- Plant response rating, Sunflower [5, 19]: 15
- Pigweed plant response rating [6, 13]: 35
- Plant response rating, Pigweed [6, 14]: 50
- Pigweed plant response rating [6, 15]: 100
- Pigweed plant response rating [6, 16]: 100
- Rice plant response rating (0 to 100 scale) [7, 17]: 70
- Plant response rating, Rice [7, 20]: 90
- Plant response rating, Velvetleaf [8, 9]: 5
- Plant response rating, Velvetleaf [8, 11]: 75
- Plant response rating, Velvetleaf [8, 18]: 80

SMILES: C=CCNC(=O)c1cccc(NC(=O)c2cc(C(C)(C)C)nn2C)n1 [Compound 318]
- Plant response rating, Goosegrass [1, 9]: 0
- Plant response rating, Goosegrass [1, 10]: 10
- Plant response rating, Goosegrass [1, 11]: 80
- Plant response rating, Goosegrass [1, 18]: 90
- Goosegrass plant response rating [1, 21]: 5
- Plant response rating, Goosegrass [1, 22]: 5
- Plant response rating, Goosegrass [1, 23]: 0
- Plant response rating, Goosegrass [1, 24]: 0
- Crabgrass, Large plant response rating [2, 13]: 30
- Plant response rating, Crabgrass, Large [2, 14]: 70
- Crabgrass, Large plant response rating [2, 15]: 70
- Crabgrass, Large plant response rating [2, 16]: 55
- Plant response rating, Crabgrass, Large [3, 10]: 50
- Plant response rating, Crabgrass, Large [3, 11]: 60
- Plant response rating, Crabgrass, Large [3, 18]: 100
- Crabgrass, Large plant response rating [3, 21]: 50
- Plant response rating, Crabgrass, Large [3, 22]: 30
- Plant response rating, Crabgrass, Large [3, 23]: 0
- Plant response rating, Crabgrass, Large [3, 24]: 0
- Plant response rating, Pigweed [4, 9]: 80
- Plant response rating, Pigweed [4, 10]: 95
- Plant response rating, Pigweed [4, 11]: 100
- Plant response rating, Pigweed [4, 18]: 100
- Pigweed plant response rating [4, 21]: 100
- Plant response rating, Pigweed [4, 22]: 100
- Plant response rating, Pigweed [4, 23]: 100
- Plant response rating, Pigweed [4, 24]: 100
- Plant response rating, Sunflower ([5]; 62 g ai/ha, scale 0 to 100): 0
- Plant response rating, Sunflower ([5]; 250 g ai/ha, scale 0-100): 0
- Plant response rating, Sunflower [5, 19]: 0
- Pigweed plant response rating [6, 13]: 95
- Plant response rating, Pigweed [6, 14]: 100
- Pigweed plant response rating [6, 15]: 100
- Pigweed plant response rating [6, 16]: 75
- Plant response rating (0 to 100 scale), Rice ([7]; 125 g ai/ha, 0 is no effect, 100 is complete control): 0
- Plant response rating, Rice [7, 20]: 50
- Plant response rating, Velvetleaf [8, 9]: 60
- Plant response rating, Velvetleaf [8, 11]: 100
- Plant response rating, Velvetleaf [8, 18]: 100
- Velvetleaf plant response rating [8, 21]: 60
- Plant response rating, Velvetleaf [8, 22]: 40
- Plant response rating, Velvetleaf [8, 23]: 35
- Plant response rating, Velvetleaf [8, 24]: 0

SMILES: CCn1nc(C(C)(C)C)cc1C(=O)Nc1cc(C(=O)N(C)OC)ccc1F [Compound 244]
- Plant response rating, Goosegrass [1, 9]: 70
- Plant response rating, Goosegrass [1, 10]: 95
- Plant response rating, Goosegrass [1, 11]: 100
- Plant response rating, Goosegrass [1, 18]: 100
- Plant response rating, Crabgrass, Large [3, 9]: 100
- Plant response rating, Crabgrass, Large [3, 10]: 100
- Plant response rating, Crabgrass, Large [3, 11]: 100
- Plant response rating, Crabgrass, Large [3, 18]: 100
- Plant response rating, Pigweed [4, 9]: 100
- Plant response rating, Pigweed [4, 10]: 100
- Plant response rating, Pigweed [4, 11]: 100
- Plant response rating, Pigweed [4, 18]: 100
- Plant response rating, Sunflower ([5]; 62 g ai/ha, scale 0 to 100): 0
- Plant response rating, Sunflower ([5]; 250 g ai/ha, scale 0-100): 15
- Plant response rating, Sunflower [5, 19]: 20
- Rice plant response rating (0 to 100 scale) [7, 17]: 60
- Plant response rating, Rice [7, 20]: 80
- Plant response rating, Velvetleaf [8, 9]: 15
- Plant response rating, Velvetleaf [8, 11]: 100
- Plant response rating, Velvetleaf [8, 18]: 100
